Where two headings read alike, the source gives them in different places.
Columns and labels:
HCT116-DoxR cells = assay: ROS production (H2DCF-DA, flow cytometry); assay type: cell-based, human; settings: 48 h; complexes at IC50, Dox 6 μM, Cis 5 μM
From the text: The literature widely describes the relationship between the induction of these types of programmed cell death and the production of reactive oxygen species (ROS).[79]−[81] ROS can arise from endogenous or exogenous sources and play a role in carcinogenesis and tumor development, causing DNA damage.[81],[82] The accumulation of high ROS levels results in oxidative stress in cancer cells, a condition that can be exploited by surpassing the intrinsic antioxidant capacity of tumor cells as a targeted therapeutic approach.[75] It is known that Cu(II) complexes induce ROS production.[38] In this regard, the production of reactive oxygen species was quantified in HCT116-DoxR cells using the 2′,7′-dichlorodihydrofluorescein diacetate (H2DCF-DA) probe, which is rapidly oxidized in the presence of ROS, generating the compound 2′,7′-dichlorodihydrofluorescein (DCF), whose fluorescence can be detected by flow cytometry.[71] The fluorescence intensity is directly proportional to the amount of intracellular ROS. […] TBHP is a widely used organic peroxide in oxidative stress studies as it activates caspase-mediated apoptosis and ROS production.[83]
The quantification of reactive oxygen species (ROS) production was performed using the probe dichlorofluorescein diacetate (H2DCF-DA) (molecular probes: reactive oxygen species (ROS) detection reagents, Invitrogen, USA). Briefly, HCT116-DoxR cells were seeded in six-well plates at a density of 1 × 10^5 cells/mL and incubated for 24 h under the conditions mentioned before. After the incubation period, the medium was replaced with fresh medium containing the tested copper complexes at their IC50 concentrations. 0.1% (v/v) DMSO solution was used as the negative control, and 6 μM Dox, 5 μM Cis, and 42 μM Tertbutyl Hydroperoxide (TBHP) were used as positive controls. The cells were incubated again under the same conditions mentioned above for 48 h. Later, the culture medium was removed, cells were washed with PBS 1× and TrypLE Express to detach them and then they were washed again with PBS 1×. After that, cells were incubated in a solution of 10 μM H2DCF-DA in PBS 1x for 20 min at 37 °C. Subsequently, the samples were analyzed by the Attune Acoustic Focusing Flow Cytometer (Life Technologies, Carlsbad, USA), and the obtained data were processed by the respective software (Attune Cytometric software).

[1] = tested on: HCT116-DoxR cells (doxorubicin resistant colorectal carcinoma); assay: MTS cell viability assay, HCT116-DoxR 2D; assay type: cell-based, human; settings: for IC50: 48 h of exposure, MTS, relative IC50, mean + SEM, read-out: IC50 HCT116-DoxR (2D); for SI HCT116-DoxR: ratio IC50 fibroblasts / IC50 HCT116-DoxR
Procedure: The antiproliferative effect of the Cu(II) complexes in tumor and healthy cell lines was assessed through the MTS assay, a colorimetric method that is widely used to evaluate cellular viability, specifically mitochondrial viability.[53],[54] Cellular viability was determined after 48 h exposure to a concentration range (0.1–50 μM) of Cu(II) complexes in three tumor cell lines. […] Additionally, the viability of healthy primary dermal fibroblasts was performed as a comparison of the complexes’ antiproliferative effects in normal cells.
Cellular viability assays were performed using HCT116, HCT116-DoxR, and A2780 cancer cell lines as well as normal human primary fibroblasts. Cells were seeded at a density of 0.75 × 10^5 cells/mL in 96-well plates and incubated at 37 °C with 5% (v/v) CO2 for 24 h. After this incubation period, the copper complexes were accurately weighed and immediately dissolved in 100% (v/v) dimethyl sulfoxide (DMSO). Subsequently, the complexes were diluted to the final concentration using a cell culture medium. The culture medium in each well was replaced with fresh medium containing varying concentrations of the complexes (ranging from 0.01 to 50 μM). Negative controls contained culture medium with 0.1% (v/v) DMSO, and positive controls contained 0.4 μM Dox.
After an additional 48 h of incubation under the same conditions, cellular viability was assessed using the CellTiter 96 Aqueous One Solution Cell Proliferation Assay kit (Promega, Madison, USA). Metabolically active cells contain mitochondrial dehydrogenases that can reduce 3-(4,5-dimethylthiazol-2-yl)-5-(3-carboxymethoxyphenyl)-2-(4-sulfophenyl)-2H-tetrazolium, the inner salt (MTS) to formazan. The absorbance of formazan, measured at 490 nm in a microplate reader (Tecan Infinite M200, Tecan, Männedorf, Switzerland), is directly proportional to the number of viable cells.[104]
The cell viability versus concentration graphics were analyzed using Prism 8 software (GraphPad) to determine the half-maximal inhibitory concentration (IC50) of each complex for the respective cell line. Additionally, the selective index (SI) for each complex was calculated by dividing the IC50 of human fibroblasts by the IC50 values of the tested cancer cell lines.

IC50 ([1]; Homo sapiens) [nM] | Compound | ROS production higher than DMSO control (HCT116-DoxR cells) [×] | IC50 [1] [nM] | SI HCT116-DoxR [1]
 | N.N.[Cl][Pt][Cl] [Cisplatin] | 2.2 |  | 
 | [Cl][Cu-3]12([Cl])[n+]3ccccc3-c3cc(-c4cccc5ccccc45)cc([n+]31)-c1cccc[n+]12 [Cu1a] | 1.42 | 240 ± 20 | 38.6
 | [Cl][Cu-3]12([Cl])[n+]3ccccc3-c3cc(-c4ccc5ccccc5c4)cc([n+]31)-c1cccc[n+]12 [Cu1b] | 1.48 | 290 ± 20 | 45.9
> 6000 | COc1cccc2c1C(=O)c1c(O)c3c(c(O)c1C2=O)C[C@@](O)(C(=O)CO)C[C@@H]3O[C@H]1C[C@H](N)[C@H](O)[C@H](C)O1 [Doxorubicin] | 1.8 |  | 

From PMC11571215, “Optimization of Antiproliferative Properties of Triimine Copper(II) Complexes” (Journal of Medicinal Chemistry, 2024)
